Results on eight compounds are retold here after patent publication US9795140B2, “Molecules having pesticidal utility, and intermediates, compositions, and processes, related thereto” (priority 2015, dated 2017).

Format in all cases: in vivo
Data set [1] relates to Beet Armyworm (Spodoptera exigua, LAPHEG). The experiment in a line: Bioassay on Beet Armyworm (BAW), 128-well diet tray assay. Conditions: 168 h, 50 μg/cm^2 on artificial diet, second instar larvae, 25° C., five to seven days, average of eight wells, read-out: BAW % Control (or Mortality) rating. A digest of the protocol: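 Percent mortality, averaged across eight replicate wells, was scored after five to seven days at 25° C. under a 14:10 light-dark cycle. Each well's diet carried 50 μg/cm^2 of the dried test molecule and held one to five second instar larvae.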

Data set [2] has as its system Yellow Fever Mosquito (Aedes aegypti, AEDSAE). The experiment in a line: Bioassay on Yellow Fever Mosquito (YFM) larvae, 96-well plate. To be noted: about 1 day-old larvae, room temperature, 3 days, scored on mortality. A digest of the protocol: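 Aedes aegypti larvae (about 1 day old) in liver-powder water were added to plates dispensed from DMSO master plates (4000 ppm stock) diluted with 90:10 water/acetone; six replicate plates per master. Lidded plates were held at room temperature for 3 days, then each well was scored for mortality.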

In data set [3] the test system is Cabbage Looper (Trichoplusia ni, TRIPNI). The experiment in a line: Bioassay on Cabbage Looper (CL), 128-well diet tray assay. Conditions: 168 h, 50 μg/cm^2 on artificial diet, second instar larvae, 25° C., five to seven days, average of eight wells, read-out: CL % Control (or Mortality) rating. In short, it runs like this:
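Second-instar T. ni larvae (one to five per well) were placed on artificial diet treated with 50 μg/cm^2 compound, applied in 90:10 acetone-water and dried. Trays were held five to seven days at 25 °C under 14:10 light-dark. Percent mortality per well was averaged over eight wells.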

On to `O=C(NCC(F)(F)F)c1cc(NC(=O)[C@H]2[C@H](c3cc(F)cc(C(F)(F)F)c3)C2(Cl)Cl)ccc1Cl` (relative stereo) [F122, 2-Chloro-5-(trans-2,2-dichloro-3-(3-fluoro-5-(trifluoromethyl)phenyl)cyclopropane-1-carboxamido)-N-(2,2,2-trifluoroethyl)benzamide], for which the mortality at 50 µg/cm2 in data set [1] and in data set [3] was 50 to 100% in each case. The “YFM % Control (or Mortality) rating” value in data set [2] is on record as “A (80-100)”.
Regarding `O=C(NCC(F)(F)F)c1cc(NC(=O)[C@H]2[C@H](c3cc(F)cc(Br)c3)C2(Cl)Cl)ccc1Cl` (relative stereo) [F123, 5-(trans-3-(3-Bromo-5-fluorophenyl)-2,2-dichlorocyclopropane-1-carboxamido)-2-chloro-N-(2,2,2-trifluoroethyl)benzamide], the mortality at 50 µg/cm2 in data set [1] and in data set [3] was 50 to 100% throughout. In data set [2], the “YFM % Control (or Mortality) rating” value was “A (80-100)”.
For `O=C(NCC(F)(F)F)c1cc(NC(=O)[C@H]2[C@H](c3cc(Br)cc(C(F)(F)F)c3)C2(Cl)Cl)ccc1Cl` (relative stereo) [F124, 5-(trans-3-(3-Bromo-5-(trifluoromethyl)phenyl)-2,2-dichlorocyclopropane-1-carboxamido)-2-chloro-N-(2,2,2-trifluoroethyl)benzamide], the mortality at 50 µg/cm2 in data set [1] and in data set [3] was 50 to 100% in each case. In addition, the “YFM % Control (or Mortality) rating” value in data set [2] is “A (80-100)”.
With `O=C(NCC(F)(F)F)c1cc(NC(=O)[C@H]2[C@H](c3cc(Cl)cc(C(F)F)c3)C2(Cl)Cl)ccc1Cl` (relative stereo) [F128, 2-Chloro-5-(trans-2,2-dichloro-3-(3-chloro-5-(difluoromethyl)phenyl)cyclopropane-1-carboxamido)-N-(2,2,2-trifluoroethyl)benzamide], the mortality at 50 µg/cm2 in data set [1] and in data set [3] was 50 to 100% throughout. Besides, the “YFM % Control (or Mortality) rating” value in data set [2] is “A (80-100)”.
For `O=C(NCC(F)(F)F)c1cc(NC(=O)[C@H]2[C@H](c3ccc(Cl)c(C(F)F)c3)C2(Cl)Cl)ccc1Cl` (relative stereo) [F129, 2-Chloro-5-(trans-2,2-dichloro-3-(4-chloro-3-(difluoromethyl)phenyl)cyclopropane-1-carboxamido)-N-(2,2,2-trifluoroethyl)benzamide], the mortality at 50 µg/cm2 in data set [1] and in data set [3] was 50 to 100% each time. Moreover, in data set [2], the “YFM % Control (or Mortality) rating” value is “A (80-100)”.
On to `O=C(NCC(F)(F)F)c1cc(NC(=O)[C@H]2[C@H](c3cc(F)cc(C(F)F)c3)C2(Cl)Cl)ccc1Cl` (relative stereo) [F130, 2-Chloro-5-(trans-2,2-dichloro-3-(3-(difluoromethyl)-5-fluorophenyl)cyclopropane-1-carboxamido)-N-(2,2,2-trifluoroethyl)benzamide], for which the mortality at 50 µg/cm2 in data set [1] and in data set [3] was 50 to 100% each time. In data set [2], the “YFM % Control (or Mortality) rating” value was “A (80-100)”.
Turning to `O=C(NCC(F)(F)F)c1cc(NC(=O)[C@H]2[C@H](c3ccc(F)c(C(F)F)c3)C2(Cl)Cl)ccc1Cl` (relative stereo) [F131, 2-Chloro-5-(trans-2,2-dichloro-3-(3-(difluoromethyl)-4-fluorophenyl)cyclopropane-1-carboxamido)-N-(2,2,2-trifluoroethyl)benzamide], the mortality at 50 µg/cm2 in data set [1] and in data set [3] was 50 to 100% throughout. Further, the “YFM % Control (or Mortality) rating” value in data set [2] is on record as “A (80-100)”.
For `O=C(NCC(F)(F)F)c1cc(NC(=O)[C@H]2[C@H](c3ccc(C(F)F)c(Cl)c3)C2(Cl)Cl)ccc1Cl` (relative stereo) [F132, 2-Chloro-5-(trans-2,2-dichloro-3-(3-chloro-4-(difluoromethyl)phenyl)cyclopropane-1-carboxamido)-N-(2,2,2-trifluoroethyl)benzamide], the mortality at 50 µg/cm2 in data set [1] and in data set [3] was 50 to 100% each time. Moreover, the “YFM % Control (or Mortality) rating” value in data set [2] is “A (80-100)”.
